Test results reported in patent US12091410B2, “Heterocyclic compound” (Takeda Pharmaceutical Company Limited, priority 2018, dated 2024).

Target: T1, human orexin type 2 receptor (Homo sapiens, UniProt O43614)
T1 construct: expressed in transfected cells
T1 sequence (O43614 1-444): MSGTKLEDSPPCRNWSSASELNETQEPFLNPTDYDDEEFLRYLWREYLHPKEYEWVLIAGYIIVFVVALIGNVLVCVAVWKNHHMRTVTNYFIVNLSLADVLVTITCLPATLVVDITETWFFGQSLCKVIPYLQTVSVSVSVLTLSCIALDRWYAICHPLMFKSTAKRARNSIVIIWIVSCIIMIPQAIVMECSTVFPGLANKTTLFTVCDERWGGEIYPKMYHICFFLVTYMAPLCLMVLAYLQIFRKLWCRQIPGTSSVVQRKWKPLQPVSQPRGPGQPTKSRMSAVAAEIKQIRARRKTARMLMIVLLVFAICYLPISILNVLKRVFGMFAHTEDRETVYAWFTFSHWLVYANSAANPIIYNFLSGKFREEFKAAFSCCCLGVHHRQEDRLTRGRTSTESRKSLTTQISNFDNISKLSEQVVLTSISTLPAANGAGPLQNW
Assay: Measurement of orexin type 2 receptor agonist activity (calcium fluorescence, Fluo-4 AM, CHO cells forcibly expressing human OX2 receptor)
Type: cell-based
Details: test compound 3 μM, DMSO = 0%, orexin A (human) 10 nM = 100%
From the text: To obtain a cell clone stably expressing human orexin type 2 receptor, human orexin type 2 receptor cDNA was inserted into pcDNA3.1(+) plasmid vector (Invitrogen), and a plasmid DNA for expression of human orexin type 2 receptor (pcDNA3.1(+)/hOX2R) was cloned. The plasmid DNA was introduced into CHO-dhfr cell by an electroporation method, and human orexin type 2 receptor expressing clone cells were obtained by limiting dilution method by using G418 drug resistance as a selection marker.
CHO cells forcibly expressing human OX2 receptor were seeded in each well of 384 well black transparent bottom plate (BD Falcon) at 7,500 cells/well, and cultured for one day in a 5% CO2 incubator at 37° C. After removal of the medium in the cell plate, assay buffer A containing a calcium indicator (HBSS (Thermo Fisher Scientific), 20 mM HEPES (Thermo Fisher Scientific), 0.1% BSA (Sigma-Aldrich), 2.5 μg/mL Fluo-4 AM (DOJINDO Chemical), 0.08% Pluronic F127 (DOJINDO Chemical), 1.25 mM probenecid (DOJINDO Chemical)) was added at 30 μL/well. The plate was stood for 30 min in a 5% CO2 incubator at 37° C., and further stood at room temperature for 30 min. A test compound prepared by diluting with assay buffer B (HBSS, 20 mM HEPES, 0.1% BSA) was added at 10 μL/well, and the fluorescence value was measured by FDSSpCELL (Hamamatsu Photonics K. K.) every one sec for 1 min, and thereafter every two sec for 1 min 40 sec. The activity (%) of the test compound was calculated assuming that variation in the fluorescence value when DMSO was added instead of the test compound was 0%, and variation in the fluorescence value when orexin A (human) (PEPTIDE INSTITUTE, INC.) was added at the final concentration of 10 nM was 100%.

SMILES | OX2R agonist activity (3 μM, %) [%]
CC(O)c1cc2n(n1)C(Cc1cccc(-c3ccccc3)c1)C(NS(C)(=O)=O)CC2 (racemic) [Example 36, N-[(6SR,7SR)-7-[([1,1′-biphenyl]-3-yl)methyl]-2-(1-hydroxyethyl)-4,5,6,7-tetrahydropyrazolo[1,5-a]pyridin-6-yl]methanesulfonamide] | 105
Cc1nc2n(n1)C(CO[C@H]1CC[C@@H](c3ccccc3)CC1)C(NS(C)(=O)=O)CC2 (mixture of isomers) [Example 5, rac-N-[(5R,6S)-2-methyl-5-({[(1s,4S)-4-phenylcyclohexyl]oxy}methyl)-5,6,7,8-tetrahydro[1,2,4]triazolo[1,5-a]pyridin-6-yl]methanesulfonamide] | 99
CCS(=O)(=O)N[C@H]1CCn2cc(C)nc2[C@H]1Cc1cccc(-c2cccc(F)c2)c1 (relative stereo) [Example 58, rel-N-{(7S,8S)-8-[(3′-fluoro[1,1′-biphenyl]-3-yl)methyl]-2-methyl-5,6,7,8-tetrahydroimidazo[1,2-a]pyridin-7-yl}ethanesulfonamide] | 95
CC(O)c1nn2c(c1Cl)CCC(NS(C)(=O)=O)C2COC1CCN(c2ncccn2)CC1 (racemic) [Example 50, N-[(6SR,7RS)-3-chloro-2-(1-hydroxyethyl)-7-({[1-(pyrimidin-2-yl)piperidin-4-yl]oxy}methyl)-4,5,6,7-tetrahydropyrazolo[1,5-a]pyridin-6-yl]methanesulfonamide] | 92
Cc1nc2c(s1)CC[C@H](NS(C)(=O)=O)[C@@H]2Cc1cccc(-c2ccccc2)c1 (racemic) [Example 17, rac-N-{(4S,5S)-4-[([1,1′-biphenyl]-3-yl)methyl]-2-methyl-4,5,6,7-tetrahydro-1,3-benzothiazol-5-yl}methanesulfonamide] | 62
Cc1cc2n(n1)[C@@H](COC1CCN(c3ncc(F)cn3)CC1)[C@@H](NS(C)(=O)=O)CC2 (racemic) [Example 4, rac-N-[(6S,7R)-7-({[1-(5-fluoropyrimidin-2-yl)piperidin-4-yl]oxy}methyl)-2-methyl-4,5,6,7-tetrahydropyrazolo[1,5-a]pyridin-6-yl]methanesulfonamide] | 98
CCc1cc2n(n1)[C@@H](COC1CCN(c3ncc(F)c(C)n3)CC1)[C@@H](NS(C)(=O)=O)CC2 (racemic) [Example 41, rac-N-[(6S,7R)-2-ethyl-7-({[1-(5-fluoro-4-methylpyrimidin-2-yl)piperidin-4-yl]oxy}methyl)-4,5,6,7-tetrahydropyrazolo[1,5-a]pyridin-6-yl]methanesulfonamide] | 80
CCc1nn2c(c1Br)CC[C@H](NS(C)(=O)=O)[C@@H]2COC1CCN(c2ncc(F)cn2)CC1 (racemic) [Example 52, rac-N-[(6S,7R)-3-bromo-2-ethyl-7-({[1-(5-fluoropyrimidin-2-yl)piperidin-4-yl]oxy}methyl)-4,5,6,7-tetrahydropyrazolo[1,5-a]pyridin-6-yl]methanesulfonamide] | 95
Cc1nnn2c1CC[C@H](NS(C)(=O)=O)[C@@H]2COC1CCN(c2ncc(F)cn2)CC1 (racemic) [Example 10, rac-N-[(6S,7R)-7-({[1-(5-fluoropyrimidin-2-yl)piperidin-4-yl]oxy}methyl)-3-methyl-4,5,6,7-tetrahydro[1,2,3]triazolo[1,5-a]pyridin-6-yl]methanesulfonamide] | 69
CS(=O)(=O)N[C@H]1CCc2cccnc2[C@H]1Cc1cccc(-c2ccccc2)c1 (racemic) [Example 22, rac-N-{(7S,8S)-8-[([1,1′-biphenyl]-3-yl)methyl]-5,6,7,8-tetrahydroquinolin-7-yl}methanesulfonamide] | 63
CC(C)n1cc2c(n1)[C@@H](Cc1cccc(-c3ccccc3)c1)[C@@H](NS(C)(=O)=O)CC2 (racemic) [Example 16, rac-N-[(6S,7S)-7-[([1,1′-biphenyl]-3-yl)methyl]-2-(propan-2-yl)-4,5,6,7-tetrahydro-2H-indazol-6-yl]methanesulfonamide] | 84
Cc1nn2c(c1Cl)CC[C@H](NS(C)(=O)=O)[C@@H]2COC1CCN(c2ncc(F)cn2)CC1 (racemic) [Example 15, rac-N-[(6S,7R)-3-chloro-7-({[1-(5-fluoropyrimidin-2-yl)piperidin-4-yl]oxy}methyl)-2-methyl-4,5,6,7-tetrahydropyrazolo[1,5-a]pyridin-6-yl]methanesulfonamide] | 91
CC(C)c1cc2n(n1)[C@@H](COC1CCN(c3ccccc3F)CC1)[C@@H](NS(C)(=O)=O)CC2 (racemic) [Example 29, rac-N-[(6S,7R)-7-({[1-(2-fluorophenyl)piperidin-4-yl]oxy}methyl)-2-(propan-2-yl)-4,5,6,7-tetrahydropyrazolo[1,5-a]pyridin-6-yl]methanesulfonamide] | 80
Cc1cn2c(n1)C(COC1CCN(c3ncc(F)cn3)CC1)C(NC(=O)[C@@H]1CCCO1)CC2 (stereo in doubt) [Example 63, (2S)—N-[(7S*,8S*)-8-({[1-(5-fluoropyrimidin-2-yl)piperidin-4-yl]oxy}methyl)-2-methyl-5,6,7,8-tetrahydroimidazo[1,2-a]pyridin-7-yl]oxolane-2-carboxamide] | 92
CCc1cc2n(n1)[C@@H](COC1CCN(c3ncccn3)CC1)[C@@H](NS(C)(=O)=O)CC2 (relative stereo) [Example 59, rel-N-[(6S,7R)-2-ethyl-7-({[1-(pyrimidin-2-yl)piperidin-4-yl]oxy}methyl)-4,5,6,7-tetrahydropyrazolo[1,5-a]pyridin-6-yl]methanesulfonamide] | 101
CC(C)n1cc2c(n1)[C@@H](COC1CCN(c3ncccn3)CC1)[C@@H](NS(C)(=O)=O)CC2 (racemic) [Example 47, rac-N-[(6S,7S)-2-(propan-2-yl)-7-({[1-(pyrimidin-2-yl)piperidin-4-yl]oxy}methyl)-4,5,6,7-tetrahydro-2H-indazol-6-yl]methanesulfonamide] | 98
CCc1cc2n(n1)[C@@H](COC1CCN(c3ncc(F)c(OC)n3)CC1)[C@@H](NS(C)(=O)=O)CC2 (racemic) [Example 40, rac-N-[(6S,7R)-2-ethyl-7-({[1-(5-fluoro-4-methoxypyrimidin-2-yl)piperidin-4-yl]oxy}methyl)-4,5,6,7-tetrahydropyrazolo[1,5-a]pyridin-6-yl]methanesulfonamide] | 96
